In article PMC10394516, “The pharmacokinetic profile of brensocatib and its effect on pharmacodynamic biomarkers including NE, PR3, and CatG in various rodent species” (Frontiers in Pharmacology, 2023):

Key:
CatG [1] = test: Bone marrow CatG activity after repeated dosing, C57BL/6 mice; type: in vivo; details: for Reduction of CatG activity vs vehicle / Change From Vehicle Control (%) CatG: 7 days
Method: (§1) Briefly, animals were weighed and randomized into different treatment groups. In total, three different dosing levels of brensocatib were tested in each species and strain; each QD dosing level was equivalent to 1.5-times the matching daily BID dose. For BID dosing, the second daily dose was administered 8-h post the morning dose. C57BL/6 mice were dosed either BID or QD for 7 consecutive days at 0/0, 0.5/0.75, 2/3, and 20/30 mg/kg/day (BID/QD). BALB/c mice were dosed for 7 consecutive days at 0/0, 0.2/0.3, 2/3, and 20/30 mg/kg/day (BID/QD). SD rats were dosed for 9 consecutive days at 0/0, 0.2/0.3, 2/3, and 20/30 mg/kg/day (BID/QD). Wistar rats were dosed for 7 consecutive days at 0/0, 0.2/0.3, 2/3, and 20/30 mg/kg/day (BID/QD).
(§2) At the completion of the study, animals were sacrificed 16–24 h post their final dose. The hind limb bones (femurs and tibias) were collected at necropsy for bone marrow analysis of NSP activities by kinetic enzymatic assays ([Basso et al., 2022]). See section Quantification of Bone Marrow NSP Activities for details.
(§3) For the mice, each animal had the femurs and tibias of both hind limbs harvested. For the rat, the femur and tibia from a single hind limb per animal was harvested. Bones were kept on wet ice until processing for bone marrow collection. In brief, bone cutters were used to cut the epiphysis (knobby ends) off the long bones to expose the bone marrow filled cavity. Each bone cavity was then flushed with 5 mL/bone (mouse) or 10 mL/bone (rat) of ice-cold RPMI media through a […] and collected in a 50-mL conical tube. Cells were spun down at 2,500 × g at 4°C for 5 min and the supernatant was aspirated. After which, bone marrow cells were lysed with 1X red blood cell (RBC) lysis buffer (Abcam, ab204733) to eliminate contaminating RBCs and washed with PBS to remove any residual RBC lysis buffer. The resulting white blood cells (WBC) were subsequently lysed with 1% (v/v) Triton X-100 in PBS. Lysates were added to 96-well plates and stored at −80°C until NSP analyses.
(§4) Bone marrow lysates prepared as described above were diluted and plated onto 96-well assay plates to quantify NSP activities as described previously ([Basso et al., 2022]). Briefly, peptide substrates for NE (N-Methoxysuccinyl-Ala-Ala-Pro-Val-7-amido-4-methylcoumarin; Sigma; St. Louis, MO; Excitation/Emission at 350/450 nm), PR3 ((7-Methoxycoumarin-4-yl)acetyl-lysyl-(picolinoyl)-Tyr-Asp-Ala-Lys-Gly-Asp-N-3-(2-4-dinitrophenyl)-2-3-diaminopropyonyl-NH2); GenScript; Piscataway, NJ; Excitation/Emission at 340/430 nm), and CatG (N-Succinyl-Ala-Ala-Pro-Phe p nitroanilide; Sigma; Absorbance at 405 nm) were added at a final assay concentration of 100 μM, 40 μM, and 200 μM, respectively, and either fluorescence or absorbance was quantified using a Synergy microplate reader (BioTek; Winooski, VT). The specific NSP activity in each sample was calculated as the total activity minus the activity in the presence of a specific NSP inhibitor (if used), including elastase inhibitor (Abcam) for NE, sivelestat (Abcam) for PR3, and cathepsin G inhibitor I (Cayman Chemical; Ann Arbor, MI) for CatG. NSP concentrations were interpolated based on their activities relative to the standard curves created using active human NE protein (Sigma), active human PR3 protein (Sigma), and active human CatG protein (Sigma), respectively. Due to unavailability of commercial mouse and/or rat NE, PR3, and CatG proteins, the corresponding human proteins were used instead since their catalytic ability is considered to be conserved across species. A portion of each cell lysate sample was retained for protein quantification using a Pierce™ BCA Protein Assay Kit (Thermo Fisher). The NSP activities were normalized for the cell lysate protein concentrations.
(§5) The Pierce™ BCA Protein Assay Kit was used to measure the total protein of the samples after lysis to allow for subsequent normalization. […]

NE = test: Bone marrow NE activity after repeated dosing, BALB/c mice; type: in vivo; details: for Reduction of NE activity vs vehicle / Change From Vehicle Control (%) NE: 7 days
Method: as §1, §2, §3, §4, §5

PR3 = test: Bone marrow PR3 activity after repeated dosing, Sprague Dawley rats; type: in vivo; details: for Reduction of PR3 activity vs vehicle / Change From Vehicle Control (%) PR3: 9 days
Method: as §1, §2, §3, §4, §5

CatG [2] = test system: CatG; set-up: method as in Cipolla et al., 2023; details: Phase 2 trial in NCFBE (WILLOW); ref Cipolla et al., 2023; cited from earlier work
[3] = set-up: method as in Chalmers et al., 2020; details: Phase 2 trial in NCFBE (WILLOW, NCT03218917), compared to placebo; ref Chalmers et al., 2020; cited from earlier work
[4] = BID highest dose (20 mg/kg/day)
[5] = highest dose level 20/30 (BID/QD) mg/kg/day
[6] = oral BID 2 mg/kg/day, 16 h post final dose
[7] = oral BID 20 mg/kg/day, 16 h post final dose
[8] = oral QD 3 mg/kg/day, 24 h post final dose
[9] = oral QD 30 mg/kg/day, 24 h post final dose

## Cn1c(=O)oc2ccc(-c3ccc(C[C@@H](C#N)NC(=O)[C@@H]4CNCCCO4)cc3)cc21 [brensocatib]
CatG [1]; [4]
  Reduction of CatG activity vs vehicle: 94%
CatG [1]; QD highest dose (30 mg/kg/day)
  Reduction of CatG activity vs vehicle: 87%
CatG [1]; [5]
  Combined BID and QD percent reduction, CatG: 90%
CatG [1]; oral BID 0.5 mg/kg/day, 16 h post final dose
  Change From Vehicle Control (%) CatG: −16% (p = 0.1964)
CatG [1]; [6]
  Change From Vehicle Control (%) CatG: −71% (p < 0.0001)
CatG [1]; [7]
  Change From Vehicle Control (%) CatG: −94% (p < 0.0001)
CatG [1]; oral QD 0.75 mg/kg/day, 24 h post final dose
  Change From Vehicle Control (%) CatG: −1% (p = 0.9999)
CatG [1]; [8]
  Change From Vehicle Control (%) CatG: −64% (p < 0.0001)
CatG [1]; [9]
  Change From Vehicle Control (%) CatG: −87% (p < 0.0001)
NE; [4]
  Reduction of NE activity vs vehicle: 79%
NE; QD highest dose (30 mg/kg/day)
  Reduction of NE activity vs vehicle: 46%
NE; [5]
  Combined BID and QD percentage reduction, NE: 62%
NE; oral BID 0.2 mg/kg/day, 16 h post final dose
  Change From Vehicle Control (%) NE: +26% (p = 0.4425)
NE; [6]
  Change From Vehicle Control (%) NE: −23% (p = 0.5256)
NE; [7]
  Change From Vehicle Control (%) NE: −79% (p = 0.0008)
NE; oral QD 0.3 mg/kg/day, 24 h post final dose
  Change From Vehicle Control (%) NE: −3% (p = 0.9990)
NE; [8]
  Change From Vehicle Control (%) NE: −16% (p = 0.8297)
NE; [9]
  Change From Vehicle Control (%) NE: −46% (p = 0.0959)
PR3; [4]
  Reduction of PR3 activity vs vehicle: 68%
PR3; QD highest dose (30 mg/kg/day)
  Reduction of PR3 activity vs vehicle: 72%
PR3; [5]
  Combined BID and QD percent reduction, PR3: 70%
PR3; oral BID 0.2 mg/kg/day
  Change From Vehicle Control (%) PR3: +23% (p = 0.8292)
PR3; oral BID 2 mg/kg/day
  Change From Vehicle Control (%) PR3: −31% (p = 0.6727)
PR3; oral BID 20 mg/kg/day
  Change From Vehicle Control (%) PR3: −68% (p = 0.0907)
PR3; oral QD 0.3 mg/kg/day
  Change From Vehicle Control (%) PR3: −34% (p = 0.4869)
PR3; oral QD 3 mg/kg/day
  Change From Vehicle Control (%) PR3: −59% (p = 0.0837)
PR3; oral QD 30 mg/kg/day
  Change From Vehicle Control (%) PR3: −72% (p = 0.0285)
CatG [2]
  sputum CatG activity: Dose-dependent reductions
[3]
  time to first exacerbation: prolonged
